Data: the supplement of paper PMC10307832

Columns and labels:
Experiment in all cases: relative viability (nuclei count vs DMSO), 5 days (fraction); higher = more cells survive
NCI-H520 = test system: NCI-H520
Method in brief: (§1)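 The day after seeding in 1536-well plates, lung cancer cell lines were treated by pin tool with a single drug, or with a fixed anchor-drug dose together with five library-drug doses (not always all listed) in √10 steps. After 5 days, a combined fix-and-stain solution (final 0.05% Triton X-100, 1% formaldehyde, 1 ug/ml Hoechst) was added. Nuclei counted on 4× images gave relative viability as treated counts over vehicle counts, reported as the median of duplicate plates.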

HOP-62 = test system: HOP-62
Method in brief: as §1

NCI-H23 = test system: NCI-H23
Method in brief: as §1

NCI-H441 = test system: NCI-H441
Method in brief: as §1

NCI-H2170 = test system: NCI-H2170
Method in brief: as §1

LCLC-103H = test system: LCLC-103H
Method in brief: as §1

NCI-H2023 = test system: NCI-H2023
Method in brief: as §1

NCI-H2347 = test system: NCI-H2347
Method in brief: as §1

EMC-BAC-2 = test system: EMC-BAC-2
Method in brief: as §1

NCI-H647 = test system: NCI-H647
Method in brief: as §1

EPLC-272H = test system: EPLC-272H
Method in brief: as §1

NCI-H2126 = test system: NCI-H2126
Method in brief: as §1

NCI-H650 = test system: NCI-H650
Method in brief: as §1

NCI-H1437 = test system: NCI-H1437
Method in brief: as §1

NCI-H2405 = test system: NCI-H2405
Method in brief: as §1

NCI-H2009 = test system: NCI-H2009
Method in brief: as §1

HCC-44 = test system: HCC-44
Method in brief: as §1

NCI-H460 = test system: NCI-H460
Method in brief: as §1

LOU-NH91 = test system: LOU-NH91
Method in brief: as §1

SW 1573 = test system: SW 1573
Method in brief: as §1

NCI-H1793 = test system: NCI-H1793
Method in brief: as §1

NCI-H727 = test system: NCI-H727
Method in brief: as §1

Compound `Cc1cnc(-c2cnc(NCCNc3ccc(C#N)cn3)nc2-c2ccc(Cl)cc2Cl)[nH]1` + Cc1nc(NC(=O)N2CCC[C@H]2C(N)=O)sc1-c1ccnc(C(C)(C)C(F)(F)F)c1 [Alpelisib] (partner 2 µM) has a relative viability (NCI-H520; first compound 0.08 µM) of 0.926, a relative viability (NCI-H520; first compound 0.253 µM) of 0.791 and a relative viability (NCI-H520; first compound 0.8 µM) of 1.11. The relative viability (NCI-H520; first compound 2.53 µM) was 1.04, the relative viability (HOP-62; first compound 0.08 µM) was 1 and the relative viability (HOP-62; first compound 0.253 µM) was 0.902. For the same compound, the relative viability (HOP-62; first compound 0.8 µM) was 0.958, the relative viability (HOP-62; first compound 2.53 µM) was 1.14 and the relative viability (NCI-H23; first compound 0.08 µM) was 0.819. For the same compound, the relative viability (NCI-H23; first compound 0.253 µM) was 0.591, the relative viability (NCI-H23; first compound 0.8 µM) was 0.818 and the relative viability (NCI-H23; first compound 2.53 µM) was 0.72. For the same compound, the relative viability (NCI-H441; first compound 0.08 µM) was 0.759, the relative viability (NCI-H441; first compound 0.253 µM) was 0.668 and the relative viability (NCI-H441; first compound 0.8 µM) was 0.858. For the same compound, the relative viability (NCI-H441; first compound 2.53 µM) was 0.7, the relative viability (NCI-H2170; first compound 0.08 µM) was 0.825 and the relative viability (NCI-H2170; first compound 0.253 µM) was 0.702. It also gave a relative viability (NCI-H2170; first compound 0.8 µM) of 0.757, a relative viability (NCI-H2170; first compound 2.53 µM) of 0.778 and a relative viability (LCLC-103H; first compound 0.08 µM) of 1.16. The relative viability (LCLC-103H; first compound 0.253 µM) was 0.958, the relative viability (LCLC-103H; first compound 0.8 µM) was 1.07 and the relative viability (LCLC-103H; first compound 2.53 µM) was 0.951. It also gave a relative viability (NCI-H2023; first compound 0.08 µM) of 0.574, a relative viability (NCI-H2023; first compound 0.253 µM) of 0.656 and a relative viability (NCI-H2023; first compound 0.8 µM) of 0.747. The relative viability (NCI-H2023; first compound 2.53 µM) was 1.12, the relative viability (NCI-H2347; first compound 0.08 µM) was 1.08 and the relative viability (NCI-H2347; first compound 0.253 µM) was 0.812. For the same compound, the relative viability (NCI-H2347; first compound 0.8 µM) was 1.15, the relative viability (NCI-H2347; first compound 2.53 µM) was 1.01 and the relative viability (EMC-BAC-2; first compound 0.08 µM) was 0.8. It also gave a relative viability (EMC-BAC-2; first compound 0.253 µM) of 0.72, a relative viability (EMC-BAC-2; first compound 0.8 µM) of 0.743 and a relative viability (EMC-BAC-2; first compound 2.53 µM) of 0.749. For the same compound, the relative viability (NCI-H647; first compound 0.08 µM) was 1.19, the relative viability (NCI-H647; first compound 0.253 µM) was 1.08 and the relative viability (NCI-H647; first compound 0.8 µM) was 1.05. It also gave a relative viability (NCI-H647; first compound 2.53 µM) of 1.22, a relative viability (EPLC-272H; first compound 0.08 µM) of 0.911 and a relative viability (EPLC-272H; first compound 0.253 µM) of 1.01. For the same compound, the relative viability (EPLC-272H; first compound 0.8 µM) was 0.728, the relative viability (EPLC-272H; first compound 2.53 µM) was 0.899 and the relative viability (NCI-H2126; first compound 0.08 µM) was 0.725. For the same compound, the relative viability (NCI-H2126; first compound 0.253 µM) was 0.756, the relative viability (NCI-H2126; first compound 0.8 µM) was 0.669 and the relative viability (NCI-H2126; first compound 2.53 µM) was 0.766. It also gave a relative viability (NCI-H650; first compound 0.08 µM) of 1.07, a relative viability (NCI-H650; first compound 0.253 µM) of 1.06 and a relative viability (NCI-H650; first compound 0.8 µM) of 1.17. It also gave a relative viability (NCI-H650; first compound 2.53 µM) of 1.11, a relative viability (NCI-H1437; first compound 0.08 µM) of 0.962 and a relative viability (NCI-H1437; first compound 0.253 µM) of 0.937. For the same compound, the relative viability (NCI-H1437; first compound 0.8 µM) was 0.909, the relative viability (NCI-H1437; first compound 2.53 µM) was 0.918 and the relative viability (NCI-H2405; first compound 0.08 µM) was 1.09. The relative viability (NCI-H2405; first compound 0.253 µM) was 0.793, the relative viability (NCI-H2405; first compound 0.8 µM) was 0.811 and the relative viability (NCI-H2405; first compound 2.53 µM) was 0.592. The relative viability (NCI-H2009; first compound 0.08 µM) was 1.13, the relative viability (NCI-H2009; first compound 0.253 µM) was 1.14 and the relative viability (NCI-H2009; first compound 0.8 µM) was 1.26. For the same compound, the relative viability (NCI-H2009; first compound 2.53 µM) was 1.05, the relative viability (HCC-44; first compound 0.08 µM) was 0.853 and the relative viability (HCC-44; first compound 0.253 µM) was 0.768. It also gave a relative viability (HCC-44; first compound 0.8 µM) of 0.823, a relative viability (HCC-44; first compound 2.53 µM) of 0.926 and a relative viability (NCI-H460; first compound 0.08 µM) of 0.552. The relative viability (NCI-H460; first compound 0.253 µM) was 0.475, the relative viability (NCI-H460; first compound 0.8 µM) was 0.61 and the relative viability (NCI-H460; first compound 2.53 µM) was 0.68. It also gave a relative viability (LOU-NH91; first compound 0.08 µM) of 0.852, a relative viability (LOU-NH91; first compound 0.253 µM) of 0.729 and a relative viability (LOU-NH91; first compound 0.8 µM) of 0.675. The relative viability (LOU-NH91; first compound 2.53 µM) was 0.715, the relative viability (SW 1573; first compound 0.08 µM) was 0.822 and the relative viability (SW 1573; first compound 0.253 µM) was 0.765. For the same compound, the relative viability (SW 1573; first compound 0.8 µM) was 0.748, the relative viability (SW 1573; first compound 2.53 µM) was 0.515 and the relative viability (NCI-H1793; first compound 0.08 µM) was 0.838. The relative viability (NCI-H1793; first compound 0.253 µM) was 0.618, the relative viability (NCI-H1793; first compound 0.8 µM) was 0.973 and the relative viability (NCI-H1793; first compound 2.53 µM) was 1.08. For the same compound, the relative viability (NCI-H727; first compound 0.08 µM) was 0.505, the relative viability (NCI-H727; first compound 0.253 µM) was 0.593 and the relative viability (NCI-H727; first compound 0.8 µM) was 0.566. It also gave a relative viability (NCI-H727; first compound 2.53 µM) of 0.482.
